The SangsterLogP compilation

Experiment: method code SF-AS, from DOI: 10.1016/0021-9673(94)85294-4

SMILES	logP
CNC(=O)c1ccc[nH]1	0.42
CCCNC(=O)c1ccoc1	1.2
NC(=O)c1ccc[nH]1	0.09
COC(=O)c1cccn1C	1.8
CCNC(=O)c1c[nH]c2ccccc12	1.62
CCCNC(=O)c1ccco1	1.1
CCNC(=O)c1ccc[nH]1	0.8
CCCNC(=O)c1ccc[nH]1	1.25
CCCNC(=O)c1cc2ccccc2o1	2.65
CCOC(=O)c1ccc[nH]1	1.73
NC(=O)c1cc2ccccc2o1	1.54
CCNC(=O)c1cccn1C	1.09
CCNC(=O)c1ccccc1	1.28
CCCOC(=O)c1ccoc1	2.36
CNC(=O)c1cccn1C	0.71
CCCNC(=O)c1ccccc1	1.72
Cn1cccc1C(N)=O	0.45
CCCNC(=O)c1cccn1C	1.63

Results, then the molecule that gave them:

logP	SMILES
3.05	CCOC(=O)c1cc2ccccc2o1
1.85	CNC(=O)c1cc2ccccc2o1
1.9	CNC(=O)c1cc2ccccc2[nH]1
1.25	CNC(=O)c1c[nH]c2ccccc12
2.8	CCCNC(=O)c1cc2ccccc2[nH]1
2.78	COC(=O)c1cc2ccccc2[nH]1
2.32	CCNC(=O)c1cc2ccccc2[nH]1
2.22	CCNC(=O)c1cc2ccccc2o1
1.61	NC(=O)c1cc2ccccc2[nH]1
